Reference: US11518760B2 (Liverpool School of Tropical Medicine, priority 2017, dated 2022)

What follows are molecules tested on C6/36 Aedes albopictus cell line infected with Wolbachia pipientis (Wolbachia strain wAlbB) (assay: In vitro insect cell line assay (anti-Wolbachia screen, SYTO 11 high content imaging)). Details: 168 h; C6/36 Aedes albopictus cells infected with Wolbachia pipientis wAlbB, 7 days incubation, SYTO 11 imaging; read-out: In vitro anti-Wolbachia activity.
Assay type: cell-based
Outline: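 Wolbachia wAlbB-infected C6/36 Aedes albopictus cells were exposed to compounds at a final 5 μM for 7 days at 26 °C, with DMSO-medium wells as untreated controls. Cells were then stained with SYTO 11 for 15 min, imaged by high-content microscopy and scored by texture analysis.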

Q: Which EC50 does the source give for `FC(F)(F)c1ncccc1CNc1nc(N2CC3CC2CO3)nc2ncccc12` (stereo not drawn) [Example 255, 2-(2-oxa-5-azabicyclo[2.2.1]heptan-5-yl)-N-((2-(trifluoromethyl)pyridin-3-yl)methyl)pyrido[2,3-d]pyrimidin-4-amine] here?
A: 1 to 10 nM

Q: `CC(C)Nc1nc(NCc2cccnc2C(F)(F)F)c2ccccc2n1` [Example 151, N^2-isopropyl-N^4-((2-(trifluoromethyl)pyridin-3-yl)methyl)quinazoline-2,4-diamine] was tested. Which EC50 did it give?
A: 100 to 1000 nM

Q: How did the EC50 turn out when `Fc1ccc(CNc2ncnc3ccsc23)c(C(F)(F)F)c1` [Example 60, N-(4-fluoro-2-(trifluoromethyl)benzyl)thieno[3,2-d]pyrimidin-4-amine] was run?
A: 10 to 100 nM

Q: With `CC(C)Nc1nc(NCc2cccnc2C(F)(F)F)c2cccnc2n1` [Example 150, N^2-isopropyl-N^4-((2-(trifluoromethyl)pyridin-3-yl)methyl)pyrido[2,3-d]pyrimidine-2,4-diamine] as the molecule, how does the EC50 read?
A: 10 to 100 nM

Q: For `CC(C)Nc1nc(NCc2ccccc2C(F)(F)F)c2sccc2n1` [Example 28, N^2-isopropyl-N^4-(2-(trifluoromethyl)benzyl)thieno[3,2-d]pyrimidine-2,4-diamine], which EC50 is on record?
A: 10 to 100 nM

Q: For `CC(Nc1ncnc2cc(Cl)sc12)c1ccccc1C(F)(F)F` (stereo not drawn) [Example 101], which EC50 is on record?
A: 1000 to 100000 nM

Q: `FC(F)(F)c1ccccc1CNc1nc(N2CCC(C(F)(F)F)C2)nc2ncccc12` (stereo not drawn) [Example 266, N-(2-(trifluoromethyl)benzyl)-2-(3-(trifluoromethyl)pyrrolidin-1-yl)pyrido[2,3-d]pyrimidin-4-amine] was tested. Which EC50 did it give?
A: 1 to 10 nM

Q: With `CC(C)Nc1nc(NCc2ccc(Cl)cc2)c2sccc2n1` [Example 19, N^4-(4-chlorobenzyl)-N^2-isopropylthieno[3,2-d]pyrimidine-2,4-diamine] as the molecule, how does the EC50 read?
A: 1000 to 100000 nM

Q: Which EC50 does the source give for `NC(=O)c1nc(NCc2ccccc2C(F)(F)F)c2cccnc2n1` [Example 146, 4-((2-(trifluoromethyl)benzyl)amino)pyrido[2,3-d]pyrimidine-2-carboxamide] here?
A: 1000 to 100000 nM

Q: Which EC50 does the source give for `CC(C)Nc1nc(NCc2ccc(C#N)cc2)c2sccc2n1` [Example 116, N^4-(4-cyanobenzyl)-N^2-isopropylthieno[3,2-d]pyrimidine-2,4-diamine] here?
A: 100 to 1000 nM

Q: Which EC50 does the source give for `FC(F)C1CN(c2nc(NCc3ccccc3C(F)(F)F)c3cccnc3n2)CCO1` (stereo not drawn) [Example 284, 2-(2-(difluoromethyl)morpholino)-N-(2-(trifluoromethyl)benzyl)pyrido[2,3-d]pyrimidin-4-amine] here?
A: < 0.01 nM

Q: For `CS(=O)(=O)c1ccccc1CNc1ncnc2ccsc12` [Example 97, N-(2-(methylsulfonyl)benzyl)thieno[3,2-d]pyrimidin-4-amine], which EC50 is on record?
A: 100 to 1000 nM

Q: `COc1ccccc1CNc1nc(NC(C)C)nc2ccsc12` [Example 132, N^2-isopropyl-N^4-(2-methoxybenzyl)thieno[3,2-d]pyrimidine-2,4-diamine] was tested. Which EC50 did it give?
A: 1000 to 100000 nM

Q: How did the EC50 turn out when `CC1COC[C@@H](C)N1c1nc(NCc2cccnc2C(F)(F)F)c2cccnc2n1` (stereo partly drawn) [Example 275, 2-((3R)-3,5-dimethylmorpholino)-N-((2-(trifluoromethyl)pyridin-3-yl)methyl)pyrido[2,3-d]pyrimidin-4-amine] was run?
A: 0.01 to 1 nM

Q: For `C[C@@H]1COCCN1c1nc(NCc2ccccc2C(F)(F)F)c2cccnc2n1` [Example 209, (R)-2-(3-methylmorpholino)-N-(2-(trifluoromethyl)benzyl)pyrido[2,3-d]pyrimidin-4-amine], which EC50 is on record?
A: 10 to 100 nM

Q: `CC(C)Nc1nc(NCc2ccc(S(C)(=O)=O)cc2)c2cccnc2n1` [Example 128, N^2-isopropyl-N^4-(4-(methylsulfonyl)benzyl)pyrido[2,3-d]pyrimidine-2,4-diamine] was tested. Which EC50 did it give?
A: 100 to 1000 nM

Q: With `FC1(F)CCN(c2nc(N3CCC3c3cccnc3C(F)(F)F)c3cccnc3n2)CC1` (stereo not drawn) [Example 218, 2-(4,4-difluoropiperidin-1-yl)-4-(2-(2-(trifluoromethyl)pyridin-3-yl)azetidin-1-yl)pyrido[2,3-d]pyrimidine] as the molecule, how does the EC50 read?
A: 0.01 to 1 nM

Q: Which EC50 does the source give for `FC(F)(F)c1cnn(-c2nc(NCc3cccnc3C(F)(F)F)c3cccnc3n2)c1` [Example 203, 2-(4-(trifluoromethyl)-1H-pyrazol-1-yl)-N-((2-(trifluoromethyl)pyridin-3-yl)methyl)pyrido[2,3-d]pyrimidin-4-amine] here?
A: 100 to 1000 nM

Q: Which EC50 does the source give for `FC(F)(F)c1ccccc1C1CCN1c1nc(N2CC(C(F)(F)F)C2)nc2ncccc12` (stereo not drawn) [Example 216, 2-(3-(trifluoromethyl)azetidin-1-yl)-4-(2-(2-(trifluoromethyl)phenyl)azetidin-1-yl)pyrido[2,3-d]pyrimidine] here?
A: 100 to 1000 nM

Q: Which EC50 does the source give for `CN(Cc1ccc(F)cc1C(F)(F)F)c1ncnc2ccccc12` [Example 75, N-(4-fluoro-2-(trifluoromethyl)benzyl)-N-methylquinazolin-4-amine] here?
A: 100 to 1000 nM

Q: For `FCC1CCCN(c2nc(NCc3cccnc3C(F)(F)F)c3cccnc3n2)C1` (stereo not drawn) [Example 258, 2-(3-(fluoromethyl)piperidin-1-yl)-N-((2-(trifluoromethyl)pyridin-3-yl)methyl)pyrido[2,3-d]pyrimidin-4-amine], which EC50 is on record?
A: < 0.01 nM

Q: How did the EC50 turn out when `Cc1nc(N(C)C(C)c2ccccc2C(F)(F)F)c2sc(C(C)(C)O)cc2n1` (stereo not drawn) [Example 70, 2-(2-methyl-4-(methyl(1-(2-(trifluoromethyl)phenyl)ethyl)amino)thieno[3,2-d]pyrimidin-6-yl)propan-2-ol] was run?
A: 1000 to 100000 nM

Q: `Cc1nc(NCc2ccc(F)cc2C(F)(F)F)c2ccccc2n1` [Example 73, N-(4-fluoro-2-(trifluoromethyl)benzyl)-2-methylquinazolin-4-amine] was tested. Which EC50 did it give?
A: 100 to 1000 nM

Q: `FC(F)(F)c1cccnc1CNc1ncnc2ccsc12` [Example 61, N-((3-(trifluoromethyl)pyridin-2-yl)methyl)thieno[3,2-d]pyrimidin-4-amine] was tested. Which EC50 did it give?
A: 1000 to 100000 nM

Q: With `FC1(F)CN(c2nc(NCc3cccnc3C(F)(F)F)c3cccnc3n2)C1` [Example 201, 2-(3,3-difluoroazetidin-1-yl)-N-((2-(trifluoromethyl)pyridin-3-yl)methyl)pyrido[2,3-d]pyrimidin-4-amine] as the molecule, how does the EC50 read?
A: 10 to 100 nM

Q: For `CC(C)Nc1nc(NCc2ccc(C(F)(F)F)cc2)c2ncccc2n1` [Example 124, N^2-isopropyl-N^4-(4-(trifluoromethyl)benzyl)pyrido[3,2-d]pyrimidine-2,4-diamine], which EC50 is on record?
A: 1000 to 100000 nM

Q: How did the EC50 turn out when `Oc1nc(NCc2ccccc2C(F)(F)F)c2cccnc2n1` [Example 157, 4-((2-(trifluoromethyl)benzyl)amino)pyrido[2,3-d]pyrimidin-2-ol] was run?
A: 1000 to 100000 nM

Q: Which EC50 does the source give for `FC(F)(F)c1ccccc1CNc1nc(NC2CC2)nc2ccsc12` [Example 43, N^2-cyclopropyl-N^4-(2-(trifluoromethyl)benzyl)thieno[3,2-d]pyrimidine-2,4-diamine] here?
A: 100 to 1000 nM

Q: For `FC(F)(F)c1ncccc1CNc1nc(CN2CC(C(F)(F)F)C2)nc2ncccc12` [Example 231, 2-((3-(trifluoromethyl)azetidin-1-yl)methyl)-N-((2-(trifluoromethyl)pyridin-3-yl)methyl)pyrido[2,3-d]pyrimidin-4-amine], which EC50 is on record?
A: 100 to 1000 nM

Q: For `CC(C)Nc1nc(NCc2ccccc2F)c2ccccc2n1` [Example 135, N^4-(2-fluorobenzyl)-N^2-isopropylquinazoline-2,4-diamine], which EC50 is on record?
A: 1000 to 100000 nM

Q: Which EC50 does the source give for `FC(F)(F)c1ncccc1CNc1nc(NC2COC2)nc2ncccc12` [Example 158, N^2-(oxetan-3-yl)-N^4-((2-(trifluoromethyl)pyridin-3-yl)methyl)pyrido[2,3-d]pyrimidine-2,4-diamine] here?
A: 100 to 1000 nM

Q: How did the EC50 turn out when `CS(=O)(=O)C1CCN(c2nc(NCc3cccnc3C(F)(F)F)c3cccnc3n2)C1` (stereo not drawn) [Example 263, 2-(3-(methylsulfonyl)pyrrolidin-1-yl)-N-((2-(trifluoromethyl)pyridin-3-yl)methyl)pyrido[2,3-d]pyrimidin-4-amine] was run?
A: 100 to 1000 nM

Q: For `FC(F)(F)c1ncccc1CNc1nc(N2CC3CC(C2)O3)nc2ncccc12` [Example 293, 2-(6-oxa-3-azabicyclo[3.1.1]heptan-3-yl)-N-((2-(trifluoromethyl)pyridin-3-yl)methyl)pyrido[2,3-d]pyrimidin-4-amine], which EC50 is on record?
A: 1 to 10 nM

Q: `CC(=O)c1nc(NCc2ccccc2C(F)(F)F)c2sccc2n1` [Example 87] was tested. Which EC50 did it give?
A: 100 to 1000 nM

Q: Which EC50 does the source give for `C[C@H]1CN(c2nc(NCc3cccnc3C(F)(F)F)c3cccnc3n2)[C@@H](C)CO1` [Example 279, 2-((2S,5S)-2,5-dimethylmorpholino)-N-((2-(trifluoromethyl)pyridin-3-yl)methyl)pyrido[2,3-d]pyrimidin-4-amine] here?
A: 0.01 to 1 nM

Q: For `CNc1nc(NCc2cccnc2C(F)(F)F)c2cccnc2n1` [Example 149, N^2-methyl-N^4-((2-(trifluoromethyl)pyridin-3-yl)methyl)pyrido[2,3-d]pyrimidine-2,4-diamine], which EC50 is on record?
A: 100 to 1000 nM

Q: Which EC50 does the source give for `CCN(Cc1ccccc1C(F)(F)F)c1ncnc2ccsc12` [Example 54, N-ethyl-N-(2-(trifluoromethyl)benzyl)thieno[3,2-d]pyrimidin-4-amine] here?
A: 1 to 10 nM

Q: For `COc1nc(N(C)C(C)c2ccccc2C(F)(F)F)c2sccc2n1` (stereo not drawn) [Example 68, 2-methoxy-N-methyl-N-(1-(2-(trifluoromethyl)phenyl)ethyl)thieno[3,2-d]pyrimidin-4-amine], which EC50 is on record?
A: 10 to 100 nM

Q: How did the EC50 turn out when `CN(C)c1nc(NCc2c(F)cccc2C(F)(F)F)c2cccnc2n1` [Example 169, N^4-(2-fluoro-6-(trifluoromethyl)benzyl)-N^2,N^2-dimethylpyrido[2,3-d]pyrimidine-2,4-diamine] was run?
A: 100 to 1000 nM

Q: `CN(c1nc(NCc2cccnc2C(F)(F)F)c2cccnc2n1)C1CC1` [Example 175, N^2-cyclopropyl-N^2-methyl-N^4-((2-(trifluoromethyl)pyridin-3-yl)methyl)pyrido[2,3-d]pyrimidine-2,4-diamine] was tested. Which EC50 did it give?
A: 1 to 10 nM

Q: With `CC(C)Nc1nc(NCc2ccc(C(F)(F)F)cc2)c2ccccc2n1` [Example 111, N^2-isopropyl-N^4-(4-(trifluoromethyl)benzyl)quinazoline-2,4-diamine] as the molecule, how does the EC50 read?
A: 1000 to 100000 nM

Q: How did the EC50 turn out when `Cc1nc(NC(C)c2ccccc2C(F)(F)F)c2sccc2n1` (stereo not drawn) [Example 65, 2-methyl-N-(1-(2-(trifluoromethyl)phenyl)ethyl)thieno[3,2-d]pyrimidin-4-amine] was run?
A: 10 to 100 nM
